We go through 32 molecules from PubChem BioAssay (NCI).

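48-hour exposure; five concentrations; linearly interpolated endpoints. GI50 = concentration required for 50% inhibition of growth. TGI denotes the concentration required for complete inhibition of growth.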

Test in all cases: NCI tumour cell line growth inhibition, 48 h
Test [1] concerns EKVX NSCLC.
Test [2] has as its system KM12 colon.
Test [3] deals with MCF7 breast.
Test [4] has as its system SF-268 CNS.
The test system of test [5] is SK-MEL-28 melanoma.
In test [6] the test system is SW-620 colon.
The test system of test [7] is TK-10 renal.
Test [8] deals with HL-60(TB) leukemia.
In test [9] the test system is SR leukemia.

With `Cc1ccc(/C=C2\CN(C)CC3C(c4ccc(C)cc4)=C(C#N)C(=O)NC23)cc1` (centres undefined), the TGI in [1], in test [2], in test [3], in [4], in [5] and in test [6] was above 50 µM throughout. Further, the TGI in test [7] was above 50 µM.
Take `CC(O)c1c2c(cc3c1CC1(C3)Cc3cc4c(c(C(C)O)c3C1)CCC4)CCC2` (centres undefined): the TGI came to 96.2 µM in [1]; 21.2 µM in test [8]; 38.4 µM in test [2]; 59.5 µM in test [3]; 29.8 µM in test [9]; 69.7 µM in test [7].
In the case of `O/N=c1/ccn(O)c2ccccc12`, the TGI was determined as 11.2 µM in [1]; 8.8 µM in test [8]; 5.25 µM in test [2]; 7.49 µM in test [3]; 5.74 µM in test [4]; 3.16 µM in test [5]. Moreover, the TGI in test [9] amounted to 55.8 µM; in test [6], 11.8 µM; in test [7], 5.87 µM.
`CCOc1cc(/C=N\N(C)C)cc(/C=N\N(C)C)c1O`: the TGI was above 100 µM in test [1]; above 100 µM in test [8]; above 100 µM in [2]; 61.2 µM in test [4]; above 100 µM in test [5]; above 100 µM in test [9]. For the same molecule, the TGI in [6] and in test [7] was above 100 µM throughout.
In the case of `ClC(Cl)(Cl)C1CCOC1n1nc2ccccc2n1` (centres undefined), the TGI in test [1], in test [8], in [3], in test [4], in test [9] and in test [7] was above 100 µM throughout.
As for `CSCCC(NCc1c(O)ccc2ccc(=O)oc12)C(=O)O` (centres undefined), the TGI in [1], in test [8], in test [2], in [3], in test [4] and in test [5] was above 100 µM each time. For the same molecule, the TGI in [9], in test [6] and in [7] was above 100 µM throughout.
As to `COc1c(Cl)ccc(Cl)c1C(=O)NNC(=O)c1c(Cl)c(Cl)c(Cl)c(Cl)c1-c1nc2ccc(C(=O)c3ccccc3)cc2[nH]1`, the TGI in test [1], in [8], in test [2], in test [3], in test [4] and in test [5] was above 100 µM throughout. Besides, the TGI in test [9], in [6] and in test [7] was above 100 µM throughout.
For the molecule `N=C(/C=C/c1ccc(-c2cn3cc(/C=C/C(=N)N4CCCC4)ccc3n2)cc1)N1CCCC1`, the TGI in test [1], in [8], in test [2], in [3], in test [4] and in test [5] was above 100 µM throughout. In addition, the TGI in [9], in test [6] and in test [7] was above 100 µM in each case.
On to `Cc1c2c(c(C)n1-c1ccccc1)C(=O)N(CCSC(=N)N)C2=O`, for which the TGI in test [1], in [8], in test [2], in [3], in [4] and in [5] was above 100 µM throughout. Also, the TGI in test [6] and in test [7] was above 100 µM in each case.
Consider `N#C/C(=C1\N=C(c2ccccc2O)Oc2ccccc21)c1ccc([N+](=O)[O-])cc1`, for which the TGI in test [1], in test [8], in [2], in [3], in test [4] and in test [5] was above 100 µM throughout. The TGI in [6] and in test [7] was above 100 µM in each case.
As for `COCCOCN(C(=O)C1=CCC2(CC1)OCCO2)c1ccccc1I`, the TGI in test [1], in test [2], in test [3], in [5], in test [9] and in test [6] was above 50 µM throughout. Moreover, the TGI in test [7] was above 50 µM.
On to `O=C(O)CCC(NC(=O)c1ccc(Nc2nc3ccccc3nc2C(=O)O)cc1)C(=O)O` (centres undefined), for which the TGI in test [1], in test [8], in [2], in [3], in test [4] and in test [5] was above 100 µM each time. The TGI in test [9] and in test [7] was above 100 µM in each case.
For `O=C(NCCN1C(=O)CN=C(c2ccc(Cl)cc2)c2cc(Cl)ccc21)OCc1ccccc1`, the TGI in test [1] is 66.6 µM; in test [8], 38.1 µM; in test [2], 32.4 µM; in test [4], 29.9 µM; in test [5], above 100 µM; in test [9], 33.3 µM. Further, the TGI in test [6] was above 100 µM; in [7] it was 37.3 µM.
`CC[C@@H]1CN2CCC1C[C@@H]2C(O)c1ccnc2ccc(OCCN3CCN(CCOc4ccc5nccc(C(O)[C@@H]6C[C@@H]7CCN6C[C@@H]7CC)c5c4)CC3)cc12` (some centres undefined): the TGI in test [1] was determined as 31.2 µM; in test [8], 47.6 µM; in [2] it was 34 µM; in test [3], 31.8 µM; in test [4], 41.2 µM; in [5], 35.5 µM. In addition, the values for the TGI in test [6] and in test [7] were 55.6 µM and 29.1 µM, respectively.
As to `CC(C)C1CC=NN1C(=O)OC(C)(C)C` (centres undefined), the TGI in test [1], in test [8], in test [2], in test [3], in test [4] and in test [9] was above 100 µM each time. Also, the TGI in [6] and in [7] was above 100 µM in each case.
For `CC1=C2C(=O)O[C@@H](c3ccoc3)[C@]2(C)CCC1=O`, the TGI in [1], in test [2], in test [3], in [5], in test [9] and in test [6] was above 100 µM each time.
In the case of `COc1cc([C@@H]2c3cc4c(cc3[C@H](OC3OC5COC(C(C)C)OC5C(O)C3O)C3COC(=O)[C@@H]32)OCO4)cc(OC)c1O` (some centres undefined), the TGI is 47.5 µM in [1]; above 100 µM in [8]; 39.6 µM in test [2]; 16 µM in test [3]; 35 µM in test [4]; above 100 µM in test [9]. The TGI in [6] was found to be 22.5 µM; in test [7], 93.5 µM.
As for `C[C@H](CCC1=NCCN1)[C@H]1CC[C@H]2[C@@H]3[C@H](O)C[C@@H]4C[C@H](O)CC[C@]4(C)[C@H]3CC[C@]12C`, the TGI was 32.3 µM in test [1]; 27.7 µM in [2]; 28.5 µM in [3]; 26 µM in test [4]; 27.2 µM in test [5]; 30.1 µM in test [6]. In [7], this molecule had a TGI of 26.7 µM.
Consider `COC(=O)[C@@H]1C=C[C@@H](C#N)n2c(=O)n(-c3ccccc3)c(=O)n21`, for which the TGI was above 100 µM in test [1]; 73.2 µM in test [2]; above 100 µM in test [3]; above 100 µM in test [4]; above 100 µM in test [5]; 47.4 µM in test [9]. Moreover, the TGI in [6] and in [7] was above 100 µM throughout.
Regarding `COc1cc(C2CC(c3cccc(Nc4ccncc4)c3)=NN2c2cc(Cl)cc(Cl)c2)cc(OC)c1OC` (centres undefined), the GI50 in test [8] was 1.53 µM; in [2], 1.65 µM; in [4] it was 1.61 µM; in test [5], 1.76 µM; in test [9], 1.64 µM; in test [6], 1.67 µM. In addition, the TGI in test [8] came out at 3.65 µM; in test [2], 3.1 µM; in test [4] it was 3.21 µM; in test [5], 3.31 µM; in test [9] it was 3.72 µM; in test [6] it was 3.2 µM.
As for `CCCCCCCCCCCCCCCC(=O)ON1C(=S)NC(C)(c2ccccc2)C1=S` (centres undefined), the TGI in test [1], in [8], in test [2], in test [3], in [4] and in test [7] was above 100 µM throughout.
In the case of `Cc1ccc(-c2sc(-c3ccc(C)cc3)c3c2C2CCC3C2)cc1`, the TGI in [1], in test [8], in test [2], in test [4], in test [5] and in [9] was above 50 µM in each case. In addition, the TGI in test [6] and in [7] was above 50 µM throughout.
With `O=[N+]([O-])c1cccc(N=C2c3ccccc3CN2c2cccc([N+](=O)[O-])c2)c1`, the TGI in test [1], in [2], in test [3], in test [4], in [5] and in test [6] was above 100 µM each time. The molecule also displayed a TGI in test [7] above 100 µM.
Turning to `CNNC1=NS(=O)(=O)c2cc(C)c(Cl)cc2S1`, the TGI in [1], in test [8], in [2], in test [4], in [5] and in test [6] was above 10 µM throughout. Also, the TGI in test [7] was above 10 µM.
As for `Cc1nc2c(o1)C(=O)c1ccccc1C2=NC1CCCCC1N` (centres undefined), the TGI in test [1] was 2.92 µM; in test [8] it was 0.749 µM; in test [2], 3.18 µM; in [3], 0.9 µM; in test [4] it was 3.82 µM; in test [5] it was 0.313 µM. Also, the TGI in [6] came out at 1.38 µM; in [7] it was 3.84 µM.
Take `CSc1c(C(=O)Nc2ccc(C)cc2)c(N)nn1-c1ccccc1`: the TGI in test [1], in [8], in [3], in test [4], in test [5] and in [9] was above 100 µM throughout. Also, the TGI in [6] and in test [7] was above 100 µM in each case.
Consider `CC(=O)Oc1ccc(N2C(=O)C3c4[nH]c5ccccc5c4C4CCC(C(C)(C)C)CC4C3C2=O)cc1` (centres undefined), for which the TGI came to 9.41 µM in [1]; 5.47 µM in [8]; 13.7 µM in test [3]; 11 µM in [4]; 14.9 µM in [5]; 5.16 µM in test [6]. The molecule further gave a TGI in test [7] of 10.7 µM.
As to `CC(CC(=O)CO[C@H]1[C@H](O)[C@@H](O)[C@@H](O)[C@@H]2NC(=O)c3c(cc4c(c3O)OCO4)[C@H]21)OC1OC(CO)C(O)C(O)C1O` (some centres undefined), the TGI in [1] was found to be 3.46 µM; in test [8] it was 2.45 µM; in test [2], 1.77 µM; in test [3] it was 1.47 µM; in test [4], 3.81 µM; in [5], 14.3 µM. The TGI in [9] is 2.22 µM; in test [7] it was 1.55 µM.
Turning to `Oc1c(C2=NNC(c3cccs3)C2)ccc2ccccc12` (centres undefined), the TGI is 36.2 µM in [2]; 51.7 µM in [3]; 38.3 µM in [4]; above 100 µM in test [5]; 29.3 µM in test [9]; 70.3 µM in [6]. The molecule also displayed a TGI in [7] above 100 µM.
As for `CCCCOC(=O)C(=O)C(CC(C(=O)Cc1ccccc1)c1ccccc1)C(=O)C=C(C)C` (centres undefined), the TGI in test [1], in test [8], in [2], in test [3], in test [4] and in [5] was above 100 µM each time. Moreover, the TGI in [6] and in test [7] was above 100 µM in each case.
Consider `Clc1ccccc1/C=C/c1nsc(/C=C/c2ccccc2Cl)n1`, for which the TGI in test [1] is above 100 µM; in test [8], 52.5 µM; in test [2], above 100 µM; in test [3], above 100 µM; in [4], above 100 µM; in test [5] it was above 100 µM. Besides, the results for the TGI in [9] and in test [7] were 55.6 µM and 78.1 µM, respectively.
Consider `NS(=O)(=O)c1ccc(NC(=O)c2cc([N+](=O)[O-])cc([N+](=O)[O-])c2)cc1`, for which the TGI in [8] is 97.4 µM; in test [2], above 100 µM; in [3], 53.9 µM; in test [4], above 100 µM; in test [5], above 100 µM; in test [9], above 100 µM. Also, the TGI in test [6] and in test [7] was above 100 µM in each case.
